Experimental data as given in ChEMBL document CHEMBL5331061, “Design, synthesis, and biological evaluation of Wee1 kinase degraders” (Eur J Med Chem, 2022).
Calls of active or inactive are those of the source. The rule behind the calls is not given here.

Key:
[1] = biological target: Serine/threonine-protein kinase PLK1 (Homo sapiens, UniProt P53350); assay: Inhibition of PLK1 (unknown origin)
MV4-11 [2] = assay: Antiproliferative activity against human MV4-11 cells assessed as cell growth inhibition measured after 72 hrs by SRB Assay; conditions: MV4-11, 72 h
SUM149PT = assay: Antiproliferative activity against human SUM149PT cells assessed as cell growth inhibition measured after 72 hrs by SRB Assay
A498 = assay: Antiproliferative activity against human A498 cells assessed as cell growth inhibition measured after 72 hrs by SRB Assay; conditions: A498, 72 h
MV4-11 [3] = assay: Effect on PLK1 expression in human MV4-11 cells at IC50 measured after 6 hrs by Western blot analysis; type: functional, cell-based
[4] = biological target: Wee1-like protein kinase (Homo sapiens) (UniProt P30291); assay: Inhibition of Wee1 in human MV4-11 cells at IC50 measured after 6 hrs by Western blot analysis relative to control; type: cell-based
[5] = Effect on Wee1 level in human MV4-11 cells assessed as residual Wee1 level at 6.25 nM measured after 6 hrs by Immunoblotting method (reference value: 100%); type: functional
[6] = Effect on Wee1 level in human MV4-11 cells assessed as residual Wee1 level at 12.5 nM measured after 6 hrs by Immunoblotting method (reference value: 100%); type: functional
[7] = Effect on Wee1 level in human MV4-11 cells assessed as Wee1 level at 25 nM measured after 6 hrs by Immunoblotting method relative to control (reference value: 100%); type: functional
[8] = Effect on Wee1 level in human MV4-11 cells assessed as Wee1 level at 50 nM measured after 6 hrs by Immunoblotting method relative to control (reference value: 100%); type: functional
[9] = Effect on Wee1 level in human MV4-11 cells assessed as Wee1 level at 100 nM measured after 6 hrs by Immunoblotting method relative to control (reference value: 100%); type: functional
[10] = Half life in ICR mouse at 20 mg/kg, po measured upto 360 mins; type: ADME, organism-based; conditions: in vivo
[11] = Tmax in ICR mouse at 20 mg/kg, po measured upto 360 mins; type: ADME, organism-based; conditions: in vivo
[12] = Cmax in ICR mouse at 20 mg/kg, po measured upto 360 mins; type: ADME, organism-based; design: time < 360 min, dose 20 mg/kg, route po; conditions: in vivo
[13] = AUClast in ICR mouse at 20 mg/kg, po measured upto 360 mins; type: ADME, organism-based; design: time < 360 min, dose 20 mg/kg, route po; conditions: in vivo
[14] = Observed AUCinfinity ICR mouse at 20 mg/kg, po measured upto 360 mins; type: ADME, organism-based; design: time < 360 min, dose 20 mg/kg, route po; conditions: in vivo
[15] = Observed MRTinfinity ICR mouse at 20 mg/kg, po measured upto 360 mins; type: ADME, organism-based; conditions: in vivo
[16] = biological target: Protein cereblon/Wee1-like protein kinase (Homo sapiens, UniProt P30291+Q96SW2); assay: PROTAC activity at CRBN/Wee1 in human MV4-11 cells assessed as reduction in Wee1 level measured after 72 hrs by Western blot analysis; type: cell-based
MV4-11 [17] = assay: Effect on Wee1 mRNA expression in human MV4-11 cells at 50 nM measured upto 72 hrs by qRT-PCR assay; type: functional, cell-based
MV4-11 [18] = assay: Effect on PLK1 mRNA expression in human MV4-11 cells at 50 nM measured upto 72 hrs by qRT-PCR assay; type: functional, cell-based
MV4-11 [19] = assay: Effect on PKMYT1 mRNA expression in human MV4-11 cells at 50 nM measured upto 72 hrs by qRT-PCR assay; type: functional, cell-based
MV4-11 [20] = assay: Induction of cell cycle arrest in human MV4-11 cells assessed as accumulation of cells at G0/G1 phase incubated for 24 hrs by […] PI staining based flow cytometry analysis; type: functional; conditions: dose 12.5-200 nM
MV4-11 [21] = assay: Induction of apoptosis in human MV4-11 cells assessed as increase in early apoptotic cells incubated for 48 hrs by annexin V and PI staining based flow cytometry analysis; type: functional, cell-based; conditions: dose 12.5-200 nM
MV4-11 [22] = assay: Induction of apoptosis in human MV4-11 cells assessed as increase in late apoptotic cells incubated for 48 hrs by annexin V and PI staining based flow cytometry analysis; type: functional, cell-based; conditions: dose 12.5-200 nM
[23] = biological target: Cyclin-dependent kinase 1 (Homo sapiens) (UniProt P06493); assay: Inhibition of CDK1 phosphorylation in human MV4-11 cells assessed as reduction in phosphorylated CDK1 level by measuring residual activity at 50 uM pretreated for 2 hrs with proteasome inhibitor carfilzomib followed by incubation with compound for 3 hrs by Western blot analysis (reference value: 29%); type: cell-based
[24] = biological target: Cyclin-dependent kinase 1 (Homo sapiens) (UniProt P06493); assay: Inhibition of CDK1 phosphorylation in human MV4-11 cells assessed as reduction in phosphorylated CDK1 level by measuring residual activity at 50 uM pretreated for 2 hrs with proteasome inhibitor lenalidomide followed by incubation with compound for 3 hrs by Western blot analysis (reference value: 29%); type: cell-based
[25] = biological target: Cyclin-dependent kinase 1 (Homo sapiens) (UniProt P06493); assay: Inhibition of CDK1 phosphorylation in human MV4-11 cells assessed as reduction in phosphorylated CDK1 level by measuring residual activity at 50 uM pretreated for 2 hrs with proteasome inhibitor Iberdomide followed by incubation with compound for 3 hrs by Western blot analysis (reference value: 29%); type: cell-based
[26] = biological target: Cyclin-dependent kinase 1 (Homo sapiens) (UniProt P06493); assay: Inhibition of CDK1 phosphorylation in human MV4-11 cells assessed as reduction in phosphorylated CDK1 level by measuring residual activity at 50 uM pretreated for 2 hrs with proteasome inhibitor Bortezomib followed by incubation with compound for 3 hrs by Western blot analysis (reference value: 29%); type: cell-based
[27] = biological target: T1, Membrane-associated tyrosine- and threonine-specific cdc2-inhibitory kinase (Homo sapiens) (UniProt Q99640); assay: Induction of PKMYT1 degradation in human MV4-11 cells at 50 nM measured after 3 hrs by Western blot assay; type: cell-based
T1 sequence (whole entry): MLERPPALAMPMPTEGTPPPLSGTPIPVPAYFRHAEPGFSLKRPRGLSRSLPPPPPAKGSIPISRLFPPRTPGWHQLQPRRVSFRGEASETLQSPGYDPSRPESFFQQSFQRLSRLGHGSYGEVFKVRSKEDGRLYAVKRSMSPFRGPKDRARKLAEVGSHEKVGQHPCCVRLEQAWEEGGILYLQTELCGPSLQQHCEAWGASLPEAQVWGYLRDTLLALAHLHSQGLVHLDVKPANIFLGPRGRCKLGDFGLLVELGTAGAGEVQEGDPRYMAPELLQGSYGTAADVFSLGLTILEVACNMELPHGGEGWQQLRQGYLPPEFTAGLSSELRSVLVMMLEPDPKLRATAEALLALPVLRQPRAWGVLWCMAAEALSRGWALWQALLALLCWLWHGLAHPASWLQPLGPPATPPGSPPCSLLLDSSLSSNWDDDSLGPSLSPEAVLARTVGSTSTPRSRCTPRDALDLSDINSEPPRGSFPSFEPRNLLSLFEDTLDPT

[28] = Reduction in PKMYT1 level in human MV4-11 cells by measuring residual activity at 12.5 nM measured after 24 hrs by Western blot assay (reference value: 100%); type: functional
[29] = Reduction in PKMYT1 level in human MV4-11 cells by measuring residual activity at 25 nM measured after 24 hrs by Western blot assay (reference value: 100%); type: functional
[30] = Reduction in PKMYT1 level in human MV4-11 cells by measuring residual activity at 50 nM measured after 24 hrs by Western blot assay (reference value: 100%); type: functional
[31] = Reduction in PKMYT1 level in human MV4-11 cells by measuring residual activity at 100 nM measured after 24 hrs by Western blot assay (reference value: 100%); type: functional
[32] = Reduction in PKMYT1 level in human MV4-11 cells by measuring residual activity at 200 nM measured after 24 hrs by Western blot assay (reference value: 100%); type: functional
[33] = biological target: Cyclin-dependent kinase 1 (Homo sapiens) (UniProt P06493); assay: Inhibition of CDK1 phosphorylation in human MV4-11 cells by measuring residual activity at 12.5 nM measured after 24 hrs by Western blot assay; type: cell-based
[34] = biological target: Cyclin-dependent kinase 1 (Homo sapiens) (UniProt P06493); assay: Inhibition of CDK1 phosphorylation in human MV4-11 cells by measuring residual activity at 25 nM measured after 24 hrs by Western blot assay; type: cell-based
[35] = biological target: Cyclin-dependent kinase 1 (Homo sapiens) (UniProt P06493); assay: Inhibition of CDK1 phosphorylation in human MV4-11 cells by measuring residual activity at 50 nM measured after 24 hrs by Western blot assay; type: cell-based
[36] = biological target: Cyclin-dependent kinase 1 (Homo sapiens) (UniProt P06493); assay: Inhibition of CDK1 phosphorylation in human MV4-11 cells by measuring residual activity at 100 nM measured after 24 hrs by Western blot assay; type: cell-based
[37] = biological target: Cyclin-dependent kinase 1 (Homo sapiens) (UniProt P06493); assay: Inhibition of CDK1 phosphorylation in human MV4-11 cells by measuring residual activity at 200 nM measured after 24 hrs by Western blot assay; type: cell-based
[38] = Downregulation of PLK1 in human MV4-11 cells assessed as 2 log fold change at 50 nM measured after 2 hrs by proteomic analysis; type: functional
[39] = Downregulation of JAK2 in human MV4-11 cells assessed as 2 log fold change at 50 nM measured after 2 hrs by proteomic analysis; type: functional
[40] = Downregulation of MAP3K4 in human MV4-11 cells assessed as 2 log fold change at 50 nM measured after 2 hrs by proteomic analysis; type: functional
[41] = Half life in ICR mouse at 10 mg/kg, iv measured upto 360 mins; type: ADME, organism-based; conditions: in vivo
MV4-11 [42] = assay: Induction of apoptosis in human […] -/- MV4-11 cells at 50 to 400 nM measured after 48 hrs by AnnexinV/PI staining based flow cytometry analysis; type: functional, cell-based; conditions: dose 50-400 nM
MV4-11 [43] = assay: Induction of apoptosis in human MV4-11 cells assessed as cleaved PARP expression at 100 nM incubated for 24 hrs by Western blot analysis; type: functional, cell-based
MV4-11 [44] = assay: Induction of apoptosis in human MV4-11 cells assessed as cleaved caspase-3 expression at 100 nM incubated for 24 hrs by Western blot analysis; type: functional, cell-based
[45] = AUClast in ICR mouse at 10 mg/kg, iv measured upto 360 mins; type: ADME, organism-based; design: dose 10 mg/kg, time < 360 min, route iv; conditions: in vivo
[46] = Observed AUCinfinity ICR mouse at 10 mg/kg, iv measured upto 360 mins; type: ADME, organism-based; design: dose 10 mg/kg, time < 360 min, route iv; conditions: in vivo
[47] = Observed MRTinfinity ICR mouse at 10 mg/kg, iv measured upto 360 mins; type: ADME, organism-based; conditions: in vivo
[48] = biological target: Cyclin-dependent kinase 1 (Homo sapiens) (UniProt P06493); assay: Inhibition of CDK1 in human MV4-11 cells assessed as dephosphorylation at 50 nM pretreated for 2 hrs followed by replacement with fresh medium and measured after 24 hrs by Western blot method; type: cell-based; conditions: time 26.0 hrs
MV4-11 [49] = assay: Induction of […] in human MV4-11 cells assessed as change in gammaH2AX level at 12.5 to 200 nM measured after 24 hrs by Western blot analysis; type: functional, cell-based; conditions: dose 12.5-200 nM

Cyclin-dependent kinase 1 (Homo sapiens), sequence (P06493 whole entry, looked up): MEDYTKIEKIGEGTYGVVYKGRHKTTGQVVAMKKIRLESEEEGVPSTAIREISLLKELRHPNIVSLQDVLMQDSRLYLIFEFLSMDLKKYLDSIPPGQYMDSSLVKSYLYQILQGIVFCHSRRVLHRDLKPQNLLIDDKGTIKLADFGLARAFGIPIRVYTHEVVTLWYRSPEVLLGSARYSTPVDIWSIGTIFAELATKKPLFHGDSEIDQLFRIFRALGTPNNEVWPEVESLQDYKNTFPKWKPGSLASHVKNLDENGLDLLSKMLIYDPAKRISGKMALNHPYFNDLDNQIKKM
Serine/threonine-protein kinase PLK1, sequence (P53350 whole entry): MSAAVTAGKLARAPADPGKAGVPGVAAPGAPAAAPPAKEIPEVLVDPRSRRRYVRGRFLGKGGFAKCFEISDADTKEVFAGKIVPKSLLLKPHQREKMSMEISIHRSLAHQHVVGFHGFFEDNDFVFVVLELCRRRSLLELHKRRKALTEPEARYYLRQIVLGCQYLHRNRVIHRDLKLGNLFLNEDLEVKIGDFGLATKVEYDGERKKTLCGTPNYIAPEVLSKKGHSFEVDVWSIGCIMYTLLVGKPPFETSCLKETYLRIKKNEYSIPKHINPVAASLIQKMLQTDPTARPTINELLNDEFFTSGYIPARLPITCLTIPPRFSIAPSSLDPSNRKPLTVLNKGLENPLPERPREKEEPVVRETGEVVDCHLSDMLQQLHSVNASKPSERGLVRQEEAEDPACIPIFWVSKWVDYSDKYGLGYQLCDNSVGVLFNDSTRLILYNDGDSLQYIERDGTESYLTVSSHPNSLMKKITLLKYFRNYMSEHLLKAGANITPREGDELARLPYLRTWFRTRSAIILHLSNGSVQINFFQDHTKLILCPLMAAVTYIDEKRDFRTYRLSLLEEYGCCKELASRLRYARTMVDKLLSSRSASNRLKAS
Protein cereblon/Wee1-like protein kinase, sequence (P30291 whole entry, looked up): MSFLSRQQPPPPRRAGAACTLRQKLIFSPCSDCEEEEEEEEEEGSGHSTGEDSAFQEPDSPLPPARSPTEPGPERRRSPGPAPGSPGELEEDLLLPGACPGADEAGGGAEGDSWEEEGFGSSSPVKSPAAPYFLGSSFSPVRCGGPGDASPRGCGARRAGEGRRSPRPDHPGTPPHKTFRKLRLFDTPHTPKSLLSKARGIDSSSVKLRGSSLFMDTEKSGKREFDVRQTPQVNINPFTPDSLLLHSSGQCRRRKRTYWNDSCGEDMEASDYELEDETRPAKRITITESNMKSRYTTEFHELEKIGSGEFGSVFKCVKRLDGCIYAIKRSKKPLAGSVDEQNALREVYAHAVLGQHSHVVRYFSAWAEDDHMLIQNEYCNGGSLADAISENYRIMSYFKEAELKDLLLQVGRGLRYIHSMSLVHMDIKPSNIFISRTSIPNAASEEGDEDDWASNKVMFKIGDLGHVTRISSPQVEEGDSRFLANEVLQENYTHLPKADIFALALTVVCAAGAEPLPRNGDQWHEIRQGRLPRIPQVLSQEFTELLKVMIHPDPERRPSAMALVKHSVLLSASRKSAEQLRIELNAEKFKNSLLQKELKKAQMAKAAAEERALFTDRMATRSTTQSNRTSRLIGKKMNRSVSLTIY
Protein cereblon/Wee1-like protein kinase, sequence (Q96SW2 whole entry, looked up): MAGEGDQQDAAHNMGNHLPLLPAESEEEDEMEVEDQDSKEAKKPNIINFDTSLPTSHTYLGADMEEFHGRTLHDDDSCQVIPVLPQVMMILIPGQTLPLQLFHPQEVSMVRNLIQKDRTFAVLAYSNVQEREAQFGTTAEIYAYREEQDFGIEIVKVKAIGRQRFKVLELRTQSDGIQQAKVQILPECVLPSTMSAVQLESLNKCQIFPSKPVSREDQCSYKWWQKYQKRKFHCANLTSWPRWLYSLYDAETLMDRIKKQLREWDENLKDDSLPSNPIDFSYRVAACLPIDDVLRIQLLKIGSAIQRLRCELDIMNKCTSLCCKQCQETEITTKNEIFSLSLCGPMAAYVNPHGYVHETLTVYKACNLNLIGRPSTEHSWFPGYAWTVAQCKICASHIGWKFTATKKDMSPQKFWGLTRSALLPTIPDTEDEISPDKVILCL
Wee1-like protein kinase (Homo sapiens), sequence (P30291 whole entry, looked up): as the sequence (P30291 whole entry, looked up) above

## C=CCn1c(=O)c2cnc(Nc3ccc(N4CCN(C)CC4)cc3)nc2n1-c1cccc(C(C)(C)O)n1 [ADAVOSERTIB]
[1]
  IC50: 268 nM
MV4-11 [2]
  IC50: 133 nM
SUM149PT
  IC50: 536 nM
A498
  IC50: 216 nM
MV4-11 [3]
  Activity: inactive
[4]
  inhibition: 94%
[5]
  Activity: 90%
[6]
  Activity: 98%
[7]
  Activity: 90%
[8]
  Activity: 70%
[9]
  Activity: 120%
[10]
  half-life: 7.15 h
[11]
  Tmax: 0.25 h
[12]
  Cmax: 681 ng/mL
[13]
  AUC(0-t) at 6 h: 915 ng·h/mL
[14]
  AUC(0-inf): 934 ng·h/mL
[15]
  MRT inf: 2.84 h
[16]
  Activity: inactive

## C=CCn1c(=O)c2cnc(Nc3ccc(N4CCN(CCCCNc5cccc6c5C(=O)N(C5CCC(=O)NC5=O)C6=O)CC4)cc3)nc2n1-c1cccc(C(C)(C)O)n1 (stereo not drawn)
[1]
  IC50: 2970 nM
MV4-11 [3]
  Activity: inactive
MV4-11 [17]
  Activity: inactive
MV4-11 [18]
  Activity: inactive
MV4-11 [19]
  Activity: inactive
MV4-11 [20]
  Activity: Dose-Dependent Effect
MV4-11 [21]
  Activity: Dose-Dependent Effect
MV4-11 [22]
  Activity: Dose-Dependent Effect
[23]
  Activity: 96%
[24]
  Activity: 102%
[25]
  Activity: 75%
[26]
  Activity: 120%
[27]
  Activity: Active
[28]
  Activity: 113%
[29]
  Activity: 99%
[30]
  Activity: 38%
[31]
  Activity: 37%
[32]
  Activity: 25%
[33]
  Activity: 88%
[34]
  Activity: 80%
[35]
  Activity: 50%
[36]
  Activity: 22%
[37]
  Activity: 20%
[38]
  FC: 0.38
[39]
  FC: -0.1
[40]
  FC: -0.06
[41]
  half-life: 1.31 h
MV4-11 [42]
  Activity: inactive
MV4-11 [43]
  Activity: Active
MV4-11 [44]
  Activity: Active
[45]
  AUC(0-t) at 6 h: 4580 ng·h/mL
[46]
  AUC(0-inf): 4660 ng·h/mL
[47]
  MRT inf: 0.943 h
[48]
  inhibition: Active
MV4-11 [49]
  Activity: inactive
